Test results taken from patent publication US20140315933A1, “CHEMICAL COMPOUNDS” (Pfizer Limited, priority 2013, published 2014).
Where a name gives a salt, the structure may show the parent alone.

Target: T1, URAT-1 transporter (Homo sapiens, UniProt Q96S37)
T1 construct: expressed in transfected cells
Assay: URAT-1 inhibitor activity: [14C]-uric acid uptake into CHO-URAT1(L)GFP#8 (CHO#8) cells, scintillation proximity
Assay type: cell-based
Outline: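 Scintillation proximity read-out of 30 nM (final) [14C]-uric acid uptake over three hours at room temperature in chloride-free HEPES buffer pH 7.4. Compounds, 0–10 μM final with 0.25% DMSO, were added 15 minutes before substrate; cells were a clonal CHO line with human URAT1(L)-eGFP, preincubated 1 hour in chloride buffer.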

T1 sequence (Q96S37 with tags, fused parts or gaps): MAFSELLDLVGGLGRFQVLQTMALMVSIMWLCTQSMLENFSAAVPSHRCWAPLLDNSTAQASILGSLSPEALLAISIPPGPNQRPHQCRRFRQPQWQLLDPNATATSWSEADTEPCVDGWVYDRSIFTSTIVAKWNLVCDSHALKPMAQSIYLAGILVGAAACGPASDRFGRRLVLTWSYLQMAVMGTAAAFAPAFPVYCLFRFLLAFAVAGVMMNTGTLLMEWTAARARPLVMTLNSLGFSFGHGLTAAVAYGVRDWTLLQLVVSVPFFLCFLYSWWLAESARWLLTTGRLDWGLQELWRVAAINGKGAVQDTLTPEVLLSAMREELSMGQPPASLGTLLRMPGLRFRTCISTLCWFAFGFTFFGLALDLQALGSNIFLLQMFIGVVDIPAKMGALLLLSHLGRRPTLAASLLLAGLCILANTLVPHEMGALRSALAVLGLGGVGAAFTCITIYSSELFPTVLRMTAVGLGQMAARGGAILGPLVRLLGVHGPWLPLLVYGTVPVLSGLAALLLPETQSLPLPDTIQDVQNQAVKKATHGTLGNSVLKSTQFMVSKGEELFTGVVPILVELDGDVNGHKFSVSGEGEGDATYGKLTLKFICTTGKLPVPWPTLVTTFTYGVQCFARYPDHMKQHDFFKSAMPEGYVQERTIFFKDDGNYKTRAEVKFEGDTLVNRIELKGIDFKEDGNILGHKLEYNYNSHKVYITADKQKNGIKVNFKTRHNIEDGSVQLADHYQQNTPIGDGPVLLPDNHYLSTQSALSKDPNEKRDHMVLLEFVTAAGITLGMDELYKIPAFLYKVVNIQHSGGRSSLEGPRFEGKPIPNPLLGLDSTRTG

IC50 [nM]	SMILES
121	CCc1cc(F)ccc1Oc1ccc(S(=O)(=O)Nc2nccs2)cc1C#N [compound 179]
2190	O=S(=O)(Nc1ncns1)c1cc(F)c(Oc2ccc(F)c(F)c2)c(F)c1 [compound 198]
> 10000	Cc1cc(S(=O)(=O)Nc2nncs2)c(F)cc1Oc1ccc(F)c(F)c1 [compound 200]
651	N#Cc1cc(S(=O)(=O)Nc2nncs2)ccc1Oc1ccc(F)c(F)c1 [compound 201]
387	N#Cc1ccc(Oc2ccc(S(=O)(=O)Nc3nncs3)cc2Cl)cc1Cl [compound 203]
317	O=S(=O)(Nc1nncs1)c1ccc(Oc2ccc(F)c(F)c2)c(Cl)c1 [compound 204]
> 6810	N#Cc1cc(Oc2c(F)cc(S(=O)(=O)Nc3ncns3)cc2F)ccc1F [compound 205]
1790	N#Cc1ccc(Oc2cc(F)c(S(=O)(=O)Nc3ncns3)cc2F)cc1Cl [compound 208, 4-(3-chloro-4-cyanophenoxy)-2,5-difluoro-N-(1,2,4-thiadiazol-5-yl)benzenesulfonamide]
1610	N#Cc1ccc(Oc2ccc(S(=O)(=O)Nc3ncns3)cc2Cl)cc1Cl [compound 210]
1110	Cc1cc(S(=O)(=O)Nc2ncns2)ccc1Oc1ccc(F)c(F)c1 [compound 211]
2040	N#Cc1cc(Oc2cc(F)c(S(=O)(=O)Nc3ncns3)cc2F)ccc1F [compound 213]
1420	N#Cc1cc(Oc2ccc(S(=O)(=O)Nc3nncs3)cc2Cl)ccc1F [compound 216]
110	N#Cc1ccc(Oc2ccc(S(=O)(=O)Nc3cscn3)cc2C#N)cc1Cl [compound 220, 4-(3-chloro-4-cyanophenoxy)-3-cyano-N-(1,3-thiazol-4-yl)benzenesulfonamide]
> 10000	Cc1cc(S(=O)(=O)Nc2cscn2)c(F)cc1Oc1ccc(F)c(F)c1 [compound 223]
> 10000	O=S(=O)(Nc1cscn1)c1ccc(Oc2ccc(F)c(F)c2)cc1F [compound 224]
> 10000	N#Cc1ccc(Oc2cc(F)c(S(=O)(=O)Nc3cscn3)cc2F)cc1Cl [compound 231]

IC50 [nM]	SMILES
> 10000	N#Cc1cc(Oc2ccc(S(=O)(=O)Nc3cscn3)c(F)c2)ccc1F [compound 233]
> 10000	O=S(=O)(Nc1cscn1)c1cc(Br)c(Oc2ccc(F)c(F)c2)cc1F [compound 234]
> 10000	N#Cc1cc(Oc2ccc(S(=O)(=O)Nc3cscn3)c(Cl)c2)ccc1F [compound 236]
> 10000	O=S(=O)(Nc1cscn1)c1ccc(Oc2ccc(F)c(F)c2)cc1Cl [compound 237]
> 10000	O=S(=O)(Nc1cscn1)c1cc(F)c(Oc2ccc(F)c(F)c2)cc1F [compound 238]
577	N#Cc1cc(Oc2ccc(S(=O)(=O)Nc3cscn3)cc2I)ccc1F [compound 240]
1320	N#Cc1cc(S(=O)(=O)Nc2ncns2)ccc1Oc1c(F)cccc1Cl [compound 251]
2130	N#Cc1cc(S(=O)(=O)Nc2ncns2)ccc1Oc1cccnc1 [compound 253, trifluoroacetic acid salt]
1200	COc1ccc(Oc2ccc(S(=O)(=O)Nc3ncns3)cc2C#N)cc1F [compound 257]
1960	Cc1cccc(Oc2ccc(S(=O)(=O)Nc3ncns3)cc2C#N)c1 [compound 260]
1820	COc1ccc(Cl)c(Oc2ccc(S(=O)(=O)Nc3ncns3)cc2C#N)c1 [compound 261]
1650	COc1c(F)ccc(Oc2ccc(S(=O)(=O)Nc3ncns3)cc2C#N)c1C [compound 264]
1470	COc1ccc(Oc2ccc(S(=O)(=O)Nc3ncns3)cc2C#N)cc1Cl [compound 268]
957	COc1cc(F)c(F)cc1Oc1ccc(S(=O)(=O)Nc2ncns2)cc1C#N [compound 270]
4540	COc1ccccc1Oc1ccc(S(=O)(=O)Nc2ncns2)cc1C#N [compound 271]
> 10000	Cc1ccnc(C)c1Oc1ccc(S(=O)(=O)Nc2ncns2)cc1C#N [compound 275, trifluoroacetic acid salt]

Continued, molecule first:

SMILES	IC50 [nM]
N#Cc1cc(S(=O)(=O)Nc2nccs2)ccc1Oc1cccc(Cl)c1C#N [compound 180]	814
N#Cc1cc(S(=O)(=O)Nc2nccs2)ccc1Oc1ccccc1Cl [compound 181]	1220
N#Cc1cc(S(=O)(=O)Nc2nccs2)ccc1Oc1ccccc1Br [compound 182]	1330
N#Cc1cc(S(=O)(=O)Nc2nccs2)ccc1Oc1ccccc1F [compound 183]	> 6030
N#Cc1cc(S(=O)(=O)Nc2nccs2)ccc1Oc1ccc(N)cc1 [compound 184]	> 6240
N#Cc1cc(Oc2ccc(S(=O)(=O)Nc3ncc(Cl)s3)cc2C#N)ccc1F [compound 193]	834
N#Cc1cc(Oc2ccc(S(=O)(=O)Nc3ncns3)cc2F)ccc1F [compound 194]	> 7150
O=S(=O)(Nc1ncns1)c1ccc(Oc2ccc(F)c(F)c2)c(F)c1 [compound 195]	2240
O=S(=O)(Nc1ncns1)c1cc(F)c(Oc2ccc(F)c(F)c2)cc1F [compound 196]	1580
N#Cc1cc(S(=O)(=O)Nc2ncc(Cl)s2)ccc1Oc1ccc(F)c(F)c1 [compound 197, N-(5-chloro-1,3-thiazol-2-yl)-3-cyano-4-(3,4-difluorophenoxy)benzenesulfonamide]	225
N#Cc1cc(Oc2ccc(S(=O)(=O)Nc3nncs3)cc2C#N)ccc1F [compound 199]	> 6370
O=S(=O)(Nc1ncns1)c1ccc(Oc2ccc(F)c(F)c2)c(Cl)c1 [compound 202]	823
N#Cc1cc(Oc2ccc(S(=O)(=O)Nc3ncns3)cc2C#N)ccc1F [compound 206]	> 3320
N#Cc1cc(Oc2ccc(S(=O)(=O)Nc3ncns3)cc2Cl)ccc1F [compound 207]	747
O=S(=O)(Nc1nncs1)c1cc(F)c(Oc2ccc(F)c(F)c2)cc1F [compound 209]	> 7250
N#Cc1cc(S(=O)(=O)Nc2ncns2)ccc1Oc1ccc(F)c(F)c1 [compound 212]	782
Cc1cc(S(=O)(=O)Nc2nncs2)c(F)cc1Oc1ccc(F)c(C#N)c1 [compound 214]	> 10000
N#Cc1ccc(Oc2c(F)cc(S(=O)(=O)Nc3ncns3)cc2F)cc1Cl [compound 215]	> 10000
N#Cc1cc(Oc2cc(F)c(S(=O)(=O)Nc3nncs3)cc2F)ccc1F [compound 217]	> 10000
N#Cc1ccc(Oc2ccc(S(=O)(=O)Nc3ncns3)cc2C#N)cc1Cl [compound 218]	> 1660
N#Cc1ccc(Oc2ccc(S(=O)(=O)Nc3nncs3)cc2C#N)cc1Cl [compound 219]	426
N#Cc1cc(Oc2cc(F)c(S(=O)(=O)Nc3cscn3)cc2F)ccc1F [compound 221]	> 10000
N#Cc1cc(Oc2cc(F)c(S(=O)(=O)Nc3cscn3)cc2Br)ccc1F [compound 222]	> 3130
N#Cc1ccc(Oc2ccc(S(=O)(=O)Nc3cscn3)c(F)c2)cc1Cl [compound 225]	300

SMILES	IC50 [nM]
O=S(=O)(Nc1nccs1)c1ccc(Oc2ccc(F)c(F)c2)c(F)c1 [compound 226]	> 10000
N#Cc1ccc(Oc2ccc(S(=O)(=O)Nc3cscn3)c(Cl)c2)cc1Cl [compound 227]	> 10000
N#Cc1cc(S(=O)(=O)Nc2cscn2)ccc1Oc1ccc(F)c(F)c1 [compound 228, 3-cyano-4-(3,4-difluorophenoxy)-N-(1,3-thiazol-4-yl)benzenesulfonamide]	123
O=S(=O)(Nc1cscn1)c1cc(Cl)c(Oc2ccc(F)c(F)c2)cc1F [compound 229]	> 10000
N#Cc1ccc(Oc2ccc(S(=O)(=O)Nc3nccs3)cc2F)cc1Cl [compound 232]	513
N#Cc1cc(Oc2cc(F)c(S(=O)(=O)Nc3cscn3)cc2Cl)ccc1F [compound 235]	> 10000
N#Cc1ccc(Oc2cc(F)c(S(=O)(=O)Nc3cscn3)cc2Cl)cc1Cl [compound 239]	> 10000
O=S(=O)(Nc1cscn1)c1ccc(Oc2ccc(F)c(F)c2)c(I)c1 [compound 241]	> 10000
N#Cc1cc(Oc2ccc(S(=O)(=O)Nc3nccs3)cc2F)ccc1F [compound 242]	967
Cc1cncc(Oc2ccc(S(=O)(=O)Nc3ncns3)cc2C#N)c1 [compound 252, trifluoroacetic acid salt]	1110
CSc1ncccc1Oc1ccc(S(=O)(=O)Nc2ncns2)cc1C#N [compound 254, trifluoroacetic acid salt]	878
CCSc1ncccc1Oc1ccc(S(=O)(=O)Nc2ncns2)cc1C#N [compound 255, trifluoroacetic acid salt]	684
COc1ccc(Oc2ccc(S(=O)(=O)Nc3ncns3)cc2C#N)c(C)c1 [compound 256]	> 4820
Cc1ccc(Oc2ccc(S(=O)(=O)Nc3ncns3)cc2C#N)cc1 [compound 258]	3120
CCOc1cc(C)ccc1Oc1ccc(S(=O)(=O)Nc2ncns2)cc1C#N [compound 259]	3130
CC(C)Oc1ccc(F)cc1Oc1ccc(S(=O)(=O)Nc2ncns2)cc1C#N [compound 262]	3580
COc1cccc(Cl)c1Oc1ccc(S(=O)(=O)Nc2ncns2)cc1C#N [compound 263]	2250
COc1cccc(F)c1Oc1ccc(S(=O)(=O)Nc2ncns2)cc1C#N [compound 265]	2430
COc1c(Oc2ccc(S(=O)(=O)Nc3ncns3)cc2C#N)ccc(F)c1C [compound 266]	1570
COc1cc(Cl)ccc1Oc1ccc(S(=O)(=O)Nc2ncns2)cc1C#N [compound 267]	930
COc1cc(Cl)cc(Oc2ccc(S(=O)(=O)Nc3ncns3)cc2C#N)c1 [compound 269]	278
Cc1ccncc1Oc1ccc(S(=O)(=O)Nc2ncns2)cc1C#N [compound 272, trifluoroacetic acid salt]	> 4320
CCc1ncccc1Oc1ccc(S(=O)(=O)Nc2ncns2)cc1C#N [compound 273, trifluoroacetic acid salt]	> 10000
CC(C)c1ncccc1Oc1ccc(S(=O)(=O)Nc2ncns2)cc1C#N [compound 274, trifluoroacetic acid salt]	> 10000
